Here are results for 12 compounds from ChEMBL document CHEMBL4334551, “Discovery of a New Sulfonamide Hepatitis B Capsid Assembly Modulator” (ACS Med Chem Lett, 2020).

Where only a bound is given, the exact number is not on record here.

Series [1] can be described thus: Cytotoxicity against human HepAD38 cells assessed as reduction in cell viability incubated for 65 hrs by EZ-Cytox cell viability assay. In kind it is cell-based.
Series [2] deals with Hepatitis B virus. Briefly: Antiviral activity in HBV infected in human HepAD38 cells assessed as reduction in viral replication incubated for 65 hrs by RT-PCR analysis. Particulars: HePAD38, 65 h. It is filed as functional, organism-based.
The target of series [3] is Cytochrome P450 2D6 (Homo sapiens, UniProt P10635). Briefly: Inhibition of human CYP2D6 using dextromethorphan as substrate by LC/MS/MS analysis. In kind it is ADME.
Cytochrome P450 2D6, sequence (P10635 whole entry): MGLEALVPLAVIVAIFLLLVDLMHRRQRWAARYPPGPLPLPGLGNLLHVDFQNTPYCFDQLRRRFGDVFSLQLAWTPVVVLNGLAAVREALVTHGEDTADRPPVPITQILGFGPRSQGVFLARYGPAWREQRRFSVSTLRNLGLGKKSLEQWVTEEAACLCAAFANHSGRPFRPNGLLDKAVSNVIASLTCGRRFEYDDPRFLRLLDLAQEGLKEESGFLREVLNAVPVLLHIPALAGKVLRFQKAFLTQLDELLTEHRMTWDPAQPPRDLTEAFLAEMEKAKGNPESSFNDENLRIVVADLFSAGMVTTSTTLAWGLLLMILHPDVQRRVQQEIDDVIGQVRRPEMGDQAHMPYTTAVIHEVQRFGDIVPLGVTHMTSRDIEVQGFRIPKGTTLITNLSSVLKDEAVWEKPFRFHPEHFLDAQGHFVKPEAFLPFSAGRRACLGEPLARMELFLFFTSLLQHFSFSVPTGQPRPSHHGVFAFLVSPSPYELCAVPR
The target in series [4] is Cytochrome P450 2C9 (Homo sapiens, UniProt P11712). Briefly: Inhibition of human CYP2C9 using tolubutamide as substrate by LC/MS/MS analysis. In kind it is ADME.
Cytochrome P450 2C9, sequence (P11712 whole entry): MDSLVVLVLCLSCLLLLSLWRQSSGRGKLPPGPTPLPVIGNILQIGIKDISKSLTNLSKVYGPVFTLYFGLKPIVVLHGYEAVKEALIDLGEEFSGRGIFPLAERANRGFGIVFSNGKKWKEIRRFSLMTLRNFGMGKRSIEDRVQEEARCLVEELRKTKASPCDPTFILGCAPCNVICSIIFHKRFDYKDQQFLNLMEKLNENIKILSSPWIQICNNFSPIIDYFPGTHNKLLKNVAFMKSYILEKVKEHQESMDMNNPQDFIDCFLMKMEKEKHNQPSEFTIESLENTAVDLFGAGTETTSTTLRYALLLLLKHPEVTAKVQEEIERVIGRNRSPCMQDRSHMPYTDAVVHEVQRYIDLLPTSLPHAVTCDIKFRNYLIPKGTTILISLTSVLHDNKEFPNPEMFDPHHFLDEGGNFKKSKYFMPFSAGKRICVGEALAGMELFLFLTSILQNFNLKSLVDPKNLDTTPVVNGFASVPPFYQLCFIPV
A short description of series [5]: Clearance in Sprague-Dawley rat at 5 mg/kg, iv measured upto 24 hrs by LC/MS/MS analysis. It is filed as ADME, organism-based. To be noted: in vivo.
Series [6] deals with Cytochrome P450 2C19 (Homo sapiens, UniProt P33261). Description: Inhibition of human CYP2C19 using S-mephenytoin as substrate by LC/MS/MS analysis. It is filed as ADME.
Cytochrome P450 2C19, sequence (P33261 whole entry): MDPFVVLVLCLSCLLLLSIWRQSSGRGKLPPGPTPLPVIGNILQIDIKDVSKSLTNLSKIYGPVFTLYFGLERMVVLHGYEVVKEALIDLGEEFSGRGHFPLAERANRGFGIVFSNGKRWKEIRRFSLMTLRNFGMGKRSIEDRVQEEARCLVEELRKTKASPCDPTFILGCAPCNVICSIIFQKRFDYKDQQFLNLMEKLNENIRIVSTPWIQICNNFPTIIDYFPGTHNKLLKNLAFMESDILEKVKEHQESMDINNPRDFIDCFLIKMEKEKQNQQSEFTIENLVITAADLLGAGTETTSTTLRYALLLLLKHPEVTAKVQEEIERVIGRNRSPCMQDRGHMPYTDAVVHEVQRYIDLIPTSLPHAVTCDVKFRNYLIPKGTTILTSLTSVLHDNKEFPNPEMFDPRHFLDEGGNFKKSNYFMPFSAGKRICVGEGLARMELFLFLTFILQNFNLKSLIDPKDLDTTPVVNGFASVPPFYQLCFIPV
Series [7] can be described thus: Stability in human liver microsomes assessed as compound remaining at 1 uM incubated for 30 mins by LC/MS/MS analysis. In kind it is ADME, Microsome. To be noted: read-out: Stability. (In general: Microsomes from liver hold many membrane-bound enzymes, among them those of drug oxidation.)
The nature of series [8]: AUC in Sprague-Dawley rat at 5 mg/kg, iv measured upto 24 hrs by LC/MS/MS analysis. It is filed as ADME, organism-based. Set-up: dose 5 mg/kg, time < 24 hr, route intravenous. To be noted: in vivo.
A short description of series [9]: AUClast in Sprague-Dawley rat at 5 mg/kg, iv measured upto 24 hrs by LC/MS/MS analysis. It is filed as ADME, organism-based. Details: time < 24 hr, dose 5 mg/kg, route intravenous. To be noted: in vivo.
A short description of series [10]: Stability in human plasma assessed as compound remaining at 5 uM incubated for 4 hrs by LC/MS/MS analysis. In kind it is ADME, cell-free. Particulars: read-out: Stability.
Series [11] addresses T1, Cytochrome P450 1A2 (Homo sapiens, UniProt P05177).
T1 sequence (P05177 whole entry): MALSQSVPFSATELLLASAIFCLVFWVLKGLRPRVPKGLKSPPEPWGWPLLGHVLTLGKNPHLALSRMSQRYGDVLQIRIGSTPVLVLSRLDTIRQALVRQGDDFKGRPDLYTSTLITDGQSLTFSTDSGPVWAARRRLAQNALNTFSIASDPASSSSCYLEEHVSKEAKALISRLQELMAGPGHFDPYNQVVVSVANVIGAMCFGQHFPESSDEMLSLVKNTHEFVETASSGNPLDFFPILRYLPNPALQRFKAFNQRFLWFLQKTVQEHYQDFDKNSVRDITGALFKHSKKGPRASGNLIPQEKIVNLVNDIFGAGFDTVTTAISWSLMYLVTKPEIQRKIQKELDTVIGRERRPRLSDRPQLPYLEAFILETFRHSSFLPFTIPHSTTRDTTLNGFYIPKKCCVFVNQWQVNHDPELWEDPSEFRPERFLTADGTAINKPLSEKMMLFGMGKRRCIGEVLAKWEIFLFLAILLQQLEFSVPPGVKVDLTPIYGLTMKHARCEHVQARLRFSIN
Description: Inhibition of human CYP1A2 using phenacetin as substrate by LC/MS/MS analysis. It is filed as ADME.

Series [12] addresses Cytochrome P450 3A4 (Homo sapiens, UniProt P08684). Briefly: Inhibition of human CYP3A4 using […] as substrate by LC/MS/MS analysis. In kind it is ADME.
Series [13] in a line: Cmax in Sprague-Dawley rat at 5 mg/kg, po measured upto 24 hrs by LC/MS/MS analysis. In kind it is ADME, organism-based. Particulars: in vivo. Set-up: dose 5 mg/kg, route oral.
The nature of series [14]: AUC in Sprague-Dawley rat at 5 mg/kg, po measured upto 24 hrs by LC/MS/MS analysis. It is filed as ADME, organism-based. Details: dose 5 mg/kg, time < 24 hr, route oral. To be noted: in vivo.
Series [15] can be described thus: Oral bioavailability in Sprague-Dawley rat at 5 mg/kg measured upto 24 hrs by LC/MS/MS analysis. It is filed as ADME, organism-based. To be noted: in vivo.
A short description of series [16]: Protein binding in human plasma assessed as compound remaining at 5 uM incubated for 4 hrs by LC/MS/MS analysis. In kind it is ADME, cell-free. To be noted: read-out: PPB (converted).
The nature of series [17]: Half life in Sprague-Dawley rat at 5 mg/kg, po measured upto 24 hrs by LC/MS/MS analysis. It is filed as ADME, organism-based. Particulars: in vivo.
Series [18] is described as follows: Stability in rat liver microsomes assessed as compound remaining at 1 uM incubated for 30 mins by LC/MS/MS analysis. It is filed as ADME, Microsome. Particulars: read-out: Stability.
The nature of series [19]: Half life in Sprague-Dawley rat at 5 mg/kg, iv measured upto 24 hrs by LC/MS/MS analysis. It is filed as ADME, organism-based. Particulars: in vivo.
Series [20] is described as follows: Stability in rat plasma assessed as compound remaining at 5 uM incubated for 4 hrs by LC/MS/MS analysis. To be noted: read-out: Stability. In kind it is ADME, cell-free.
Series [21] is described as follows: Volume of distribution at steady state in Sprague-Dawley rat at 5 mg/kg, iv measured upto 24 hrs by LC/MS/MS analysis. In kind it is ADME, organism-based. Particulars: in vivo, read-out: Vdss.
Series [22] is described as follows: Tmax in Sprague-Dawley rat at 5 mg/kg, po measured upto 24 hrs by LC/MS/MS analysis. To be noted: in vivo. In kind it is ADME, organism-based.
The nature of series [23]: Protein binding in rat plasma assessed as compound remaining at 5 uM incubated for 4 hrs by LC/MS/MS analysis. To be noted: read-out: PPB. In kind it is ADME, cell-free.
Series [24] deals with Hepatitis B virus. Description: Potency index, ratio of EC50 of NVR3-778 to EC50 of compound for antiviral activity in HBV infected in human HepAD38 cells assessed as reduction in viral replication incubated for 65 hrs by RT-PCR analysis. It is filed as functional.
The target in series [25] is T2, Voltage-gated inwardly rectifying potassium channel KCNH2 (Homo sapiens, UniProt Q12809). Briefly: Inhibition of human ERG expressed in human HEK293 cells by patch clamp assay. In kind it is cell-based. For orientation: In patch-clamp work, channel activity is measured electrically.
T2 sequence (Q12809 whole entry): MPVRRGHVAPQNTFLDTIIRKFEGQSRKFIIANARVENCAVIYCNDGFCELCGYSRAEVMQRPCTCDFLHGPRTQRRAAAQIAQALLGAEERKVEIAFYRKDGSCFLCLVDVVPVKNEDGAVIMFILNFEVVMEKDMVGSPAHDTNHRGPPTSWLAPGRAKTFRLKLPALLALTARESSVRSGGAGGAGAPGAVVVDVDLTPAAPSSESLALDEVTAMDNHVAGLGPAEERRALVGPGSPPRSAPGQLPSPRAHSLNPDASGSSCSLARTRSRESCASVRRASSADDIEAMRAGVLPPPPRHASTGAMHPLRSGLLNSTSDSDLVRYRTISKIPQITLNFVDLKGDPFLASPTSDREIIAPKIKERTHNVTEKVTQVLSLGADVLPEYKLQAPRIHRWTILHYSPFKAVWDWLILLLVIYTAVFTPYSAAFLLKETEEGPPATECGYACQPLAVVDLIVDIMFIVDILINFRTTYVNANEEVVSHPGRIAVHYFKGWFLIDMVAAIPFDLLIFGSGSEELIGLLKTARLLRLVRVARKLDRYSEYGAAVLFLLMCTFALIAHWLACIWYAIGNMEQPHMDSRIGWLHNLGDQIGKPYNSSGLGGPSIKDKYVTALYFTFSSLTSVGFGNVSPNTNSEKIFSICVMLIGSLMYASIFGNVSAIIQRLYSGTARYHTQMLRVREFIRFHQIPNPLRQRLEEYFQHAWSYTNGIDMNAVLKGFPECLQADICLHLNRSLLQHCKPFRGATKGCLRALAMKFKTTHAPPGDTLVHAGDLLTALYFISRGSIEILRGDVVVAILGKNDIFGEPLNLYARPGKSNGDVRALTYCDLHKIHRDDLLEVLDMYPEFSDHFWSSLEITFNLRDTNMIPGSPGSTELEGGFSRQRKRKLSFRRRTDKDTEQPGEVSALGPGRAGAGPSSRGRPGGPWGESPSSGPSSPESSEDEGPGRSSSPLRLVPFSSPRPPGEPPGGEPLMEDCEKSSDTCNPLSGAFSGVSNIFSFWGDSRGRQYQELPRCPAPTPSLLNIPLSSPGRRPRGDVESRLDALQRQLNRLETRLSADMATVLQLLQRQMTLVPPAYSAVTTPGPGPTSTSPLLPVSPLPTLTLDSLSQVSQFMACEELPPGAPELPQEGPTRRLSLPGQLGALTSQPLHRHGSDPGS
The nature of series [26]: AUClast in Sprague-Dawley rat at 5 mg/kg, po measured upto 24 hrs by LC/MS/MS analysis. It is filed as ADME, organism-based. Particulars: in vivo. Details: dose 5 mg/kg, time < 24 hr, route oral.
Series [27] in a line: Stability in rat liver microsomes assessed as half life at 1 uM incubated for 30 mins by LC/MS/MS analysis. It is filed as ADME, Microsome.
The target of series [28] is T2, Voltage-gated inwardly rectifying potassium channel KCNH2. Description: Inhibition of human ERG by competitive fluorescence polarization assay.
For series [29], the system named is Hepatitis B virus. Description: Antiviral activity in HBV infected in human HepG2.2.15 cells assessed as reduction in viral replication incubated for 5 days by qPCR analysis. To be noted: HepG2.2.15, 120 h. In kind it is functional, organism-based. (Quantitative PCR measures a nucleic acid by following its amplification.)

Cytochrome P450 3A4, sequence (P08684 whole entry): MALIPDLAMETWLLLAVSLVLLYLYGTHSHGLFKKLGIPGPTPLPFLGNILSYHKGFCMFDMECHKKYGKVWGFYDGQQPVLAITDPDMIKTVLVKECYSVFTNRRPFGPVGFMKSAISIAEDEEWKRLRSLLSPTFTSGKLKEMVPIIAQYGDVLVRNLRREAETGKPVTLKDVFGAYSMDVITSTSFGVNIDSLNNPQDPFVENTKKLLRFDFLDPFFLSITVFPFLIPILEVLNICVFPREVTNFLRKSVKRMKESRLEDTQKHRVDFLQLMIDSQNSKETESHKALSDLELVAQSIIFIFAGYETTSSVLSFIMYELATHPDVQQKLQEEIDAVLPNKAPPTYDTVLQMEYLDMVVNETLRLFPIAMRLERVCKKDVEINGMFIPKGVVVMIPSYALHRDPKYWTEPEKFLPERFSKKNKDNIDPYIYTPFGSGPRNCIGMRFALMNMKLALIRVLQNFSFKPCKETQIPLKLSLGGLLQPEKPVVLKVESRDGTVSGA

For `CNc1cc(F)c(S(=O)(=O)N2CCC(O)CC2)cc1C(=O)Nc1cc(F)c(F)c(F)c1`, the 50% cytotoxic concentration (CC50) (usually the concentration at which the toxic effect on the cells reaches its halfway point) at 65 h in series [1] is more than 100 µM. Moreover, the EC50 (as a rule, the concentration giving half of the maximal effect) in series [2] was more than 3.3 µM.

Consider `Nc1ccc(S(=O)(=O)N2CCC(O)CC2)cc1C(=O)Nc1cc(F)c(F)c(F)c1`, for which, in series [1], the CC50 at 65 h turned out to be 76.9 µM. The concentration for a half-maximal effect (EC50) in [2] came out at 0.24 µM.

Turning to `COc1ccc(S(=O)(=O)N2CCC(O)CC2)cc1C(=O)Nc1cc(F)c(F)c(F)c1`, the CC50 at 65 h in series [1] is more than 100 µM. Besides, in series [2], the concentration giving a half-maximal response (EC50) was more than 3.3 µM.

As to `O=C(Nc1cc(F)c(F)c(F)c1)c1cc(Br)c(F)c(S(=O)(=O)N2CCC(O)CC2)c1`, the CC50 at 65 h in series [1] was more than 100 µM. The concentration giving a half-maximal response (EC50) in [2] was more than 3.3 µM.

In the case of `CN(C)c1ccc(S(=O)(=O)N2CCC(O)CC2)cc1C(=O)Nc1cc(F)c(F)c(F)c1`, in [1], the CC50 at 65 h was more than 100 µM. Besides, the EC50 in series [2] was more than 3.3 µM.

Turning to `Nc1cc(F)c(S(=O)(=O)N2CCC(O)CC2)cc1C(=O)Nc1cc(F)c(F)c(F)c1`, the concentration for half-maximal inhibition (IC50) (as a rule, the concentration that inhibits the measured activity by half) in series [3] is 32.6 µM; in series [4], 17 µM; in [6], 23.1 µM; in series [11], 81.1 µM; in series [12] it was 27.8 µM; in series [25], 8.78 µM. In series [28], this compound showed an IC50 of 10.9 µM. The clearance – broadly, a measure of how efficiently the substance is removed, as volume per time – in [5] was 0.81 L/h/kg. Besides, the results for the remaining at 0.5 h, 1 µM in series [7] and in series [18] were 50.2% and 49.2%, respectively. In addition, the AUC – broadly, concentration integrated over time – at 24 h in [8] stood at 6.42 µg·h/mL; in series [14], 5.09 µg·h/mL. For the same compound, the AUC(0-t) (commonly exposure summed from dosing to a finite time, without extrapolation to infinity) at 24 h in series [9] is 6.3 µg·h/mL; in series [26], 5.05 µg·h/mL. The remaining at 4 h, 5 µM amounted to 71.9% in series [10], 90.1% in series [20] and 98.7% in series [23]. Moreover, in [13], the concentration peaked (Cmax) at 0.94 µg/mL. The CC50 at 65 h in series [1] amounted to 48.9 µM. Moreover, the bioavailability (as a rule, dose-corrected exposure relative to a reference, in per cent) in series [15] came to 80.2%. In series [16], the fraction unbound at 4 h, 5 µM is 0.0073. Besides, the half-life (as a rule, how long it takes for the measured level to halve) in series [17] is 3.44 h; in series [19], 6.67 h. The Vd in [21] was 2.95 L/kg. In series [22], the Tmax – broadly, the time at which the peak concentration occurs – was determined as 1.58 h. Further, the “Ratio EC50” value in [24] came to 9. The half-life at 1 µM in series [27] is 0.481 h. Besides, the concentration for a half-maximal effect (EC50) in [2] was determined as 0.044 µM.

With `CSc1ccc(S(=O)(=O)N2CCC(O)CC2)cc1C(=O)Nc1cc(F)c(F)c(F)c1`, in series [1], the CC50 at 65 h is more than 100 µM. For the same compound, the EC50 in [2] turned out to be 0.72 µM.

For the compound `O=C(Nc1cc(F)c(F)c(F)c1)c1cccc(S(=O)(=O)N2CCC(O)CC2)c1`, in series [1], the CC50 at 65 h came out at 77.7 µM. Moreover, the EC50 in [2] was 0.97 µM.

Consider `O=C(Nc1cc(F)c(F)c(F)c1)c1ccc(F)c(S(=O)(=O)N2CCC(O)CC2)c1`, for which the CC50 at 65 h in [1] worked out at 57.7 µM. For the same compound, the EC50 in series [29] was 0.0064 µM; in [2], 0.36 µM.

As to `O=C(Nc1cc(F)c(F)c(F)c1)c1cc(S(=O)(=O)N2CCC(O)CC2)cc2cc[nH]c12`, the CC50 at 65 h in series [1] was more than 100 µM. In addition, the EC50 in [2] was more than 3.3 µM.

Turning to `O=C(Nc1cc(F)c(F)c(F)c1)c1cc(S(=O)(=O)N2CCC(O)CC2)ccc1O`, in series [1], the CC50 at 65 h was more than 100 µM. For the same compound, the EC50 in series [2] is more than 3.3 µM.

On to `Nc1cc(C(=O)Nc2cc(F)c(F)c(F)c2)cc(S(=O)(=O)N2CCC(O)CC2)c1F`, for which the cytotoxic concentration (CC50) at 65 h in series [1] came to 87.9 µM. In series [2], the EC50 turned out to be 0.28 µM.
